Experimental data as given in patent US6696495B2, “Treatment of disorders secondary to organic impairments” (Snowden Pharmaceuticals, LLC, priority 1998, dated 2004).
Read-outs that look alike come from different tables or passages of the source.

Columns and labels:
Heroin Craving and Abuse = format: in vivo, human
From the text: 21. Relief of Heroin Craving and Abuse (Problem No. 12) Sibutramine Patient No. 165
A single person was introduced to heroin by snorting when they were particularly stressed with the anger and pain of losing a boyfriend. They had always had difficulty recovering from pain, anger and loss but the heroin rapidly made them feel “normal”. They quickly moved to the intravenous route and reached a maximum intake of 5 bags per day (approximately $100/day in cost) for the next 6 months when they were discovered to have charged large amounts on their charge cards. They were then hospitalized in a drug detoxification hospital for three weeks but soon relapsed after discharge. After their second round of treatment they were referred to the care of a psychiatrist (the inventor herein). The patient described constant, unrelenting cravings for heroin and expressed that it would be “next to impossible” to remain free of the drug for any length of time. […] Out of desperation, the dose was increased to 15 mg in the AM and within an hour they noted a marked change. […] They now felt the “normal” feeling that heroin had given them and no longer noted any anger, hurt or distress.
They gained 15 pounds the first 2 weeks on the 15 mg of sibutramine in the morning. This was partially relieved by adding a 5 mg dose of sibutramine in the afternoon. This effect on the heroin craving and hurt is therefore clearly separate from the FDA-approved anorexic effect of sibutramine. […] They are now working at two jobs to pay their back debts.

[1] = system: Chronic Psychosis and Tardive Dyskinesia; test: Case history 28; format: in vivo, human
Protocol: 28. Chronic Psychosis and Tardive Dyskinesia
They were committed to a Psychiatric Hospital multiple times and was treated with multiple neuroleptic medication from which they have developed Tardive Dyskinesia. They were administered 15 mg sibutramine a day which had immediate effects, in less then one hour the improvement was noticed by them and others. […] They continue to take sibutramine along with 15 mg of Zyprexa daily.

Gulf War Syndrome (GWS) = test: Case history 19; format: in vivo, human; conditions: 10 mg. b.i.d. of sibutramine; veteran
[2] = system: Institutionalization Syndrome; test: Case history 25; format: in vivo, human
From the text: 25. The Symptoms Due to Institutionalization Syndrome, Also Known As Concentration Camp Syndrome or Survivors Syndrome.
A person was diagnosed with Institutionalization Syndrome and had been in and out of hospitals for 25 years.

[3] = system: Severe ADHD Refractory to All Other Medications With Executive (Frontal Lobe) Problems
From the text: A person was seen first for a life-long history of severe hyperactivity, distractibility, disorganization, poor memory of studied material, very poor concentration, and school failure despite a high IQ. There was no known history of head injury, other neurological disease, nor metabolic disease.

[4] = system: Reflex Sympathetic Dystrophy Syndrome (RSDS); Complex Regional Pain Syndrome (CRPS); test: Case history 27; format: in vivo, human
Huntington's Disease = test: Case history 12, Sibutramine Patient No. 113; format: in vivo, human
[5] = system: ADHD Refractory to Other Treatments; format: in vivo, human; conditions: sibutramine 10 mg every morning by mouth; person
Protocol: 16. ADHD Refractory to Other Treatments (Problem No. 6) Sibutramine Patient No. 16
The amphetamines made their nervous, jittery, and unable to sleep. […] They were started on sibutramine 10 mg every morning by mouth. […] After the first month, their dose was changed to 5 mg three times daily due to a five hour duration of effects.

[6] = system: Dementia, Alzheimer's-Type; test: Case history 24; format: in vivo, human
Protocol: 24. The Symptoms Due to Dementia, Alzheimer's-Type
person one was diagnosed with Dementia. The symptoms they suffered from included memory loss and severe confusion. They tried a variety of treatments to relieve their symptoms including choldine esterase inhibitors, antidepressants, Ritilin, and aterol. […] They were then tested off of sibutramine. […] They began to suffer from a lowered I.Q. and their memory deteriorated.

[7] = system: Sexual Gender Choice Change; test: Case history 7, Sibutramine Patient No. 99; format: in vivo, human; conditions: sibutramine 10 mg every morning; person
Retinitis Pigmentosa = test: Case history 13; format: in vivo, human
From the text: person one presented with a 40 year history of gradual loss of vision due to RP. For the past 10 years they had been almost completely blind except for well-lit large shapes visible to their right eye. They have been prone to falls with head injury and had developed a focal seizure disorder which had been also associated with “visions”, stammering, and confusion. Multiple treatments had been tried unsuccessfully by other physicians, and they were then referred to me.
One problem was that the effects faded after 4-6 hours and required multiple dosing. […] sleep was aided as well because of the relief from the frightening visual apparitions. The relief from stammering was also unexpected.

[8] = system: Asocial Behavior, Violence, and Hyposexuality; test: Case history 10, Sibutramine Patient No. 54; format: in vivo, human
Sexual Function and ADD = test: Case history 4, Sibutramine Patient No. 109; format: in vivo, human
[9] = system: Sexual Obsessive-Compulsive Behavior, ADD and Executive Function; test: Case history 6, Sibutramine Patient No. 77; format: in vivo, human
[10] = sibutramine 15 mg three times a day

SMILES: CC(C)CC(N(C)C)C1(c2ccc(Cl)cc2)CCC1.Cl (centres unmarked) [sibutramine, N,N-dimethyl-1-[1-(4-chlorophenyl)cyclobutyl]-3-methylbutylamine hydrochloride]
- “nodding out” side effects (Heroin Craving and Abuse; compared with heroin): none of the negative “nodding out” side effects
- weight gain (Heroin Craving and Abuse; first 2 weeks on 15 mg in the morning): 15 pounds
- anger, hurt and narcotic craving (Heroin Craving and Abuse; sibutramine 5 mg tid po, person): no relief from their anger and hurt nor from their narcotic craving
- anger, hurt and narcotic craving (Heroin Craving and Abuse; sibutramine 15 mg in the AM): a complete relief
- duration of effect (Heroin Craving and Abuse; sibutramine 15 mg in the AM): extended for the whole day
- time to marked change (Heroin Craving and Abuse; sibutramine 15 mg in the AM): an hour
- side effects (Heroin Craving and Abuse; sibutramine 15 mg in the morning): a dry mouth and a craving for food
- emotion and paranoia ([1]; 15 mg sibutramine a day, with Zyprexa): emotional for the first time and diminishing their paranoia greatly
- time to noticed improvement ([1]; 15 mg sibutramine a day, person): one hour
- Tardive Dyskinesia ([1]; after the first week): his Tardive Dyskinesia improved
- pain, cognitive problems, confusion (Gulf War Syndrome (GWS)): rapidly repaired their pain, cognitive problems, and confusion
- course since treatment began ([2]; four months): continued improvement of their symptoms
- symptoms of Institutionalization Syndrome ([2]; sibutramine 15 mg once a day): relieved their symptoms within a few minutes
- maximum duration of a single dose effect ([3]; rapid catabolism): 4 to 5 h
- ability to plan and execute (executive function) [3, 10]: marked improvement in their ability to form appropriate, organized plans and execute them promptly without procrastination or distraction
- complaints [3, 10]: being “too calm” with a loss of the exciting high-risk behavior of the past
- calm, concentration, retention of information ([3]; sibutramine 15 mg three times a day, person): the first medication to calm them and permit careful, quiet concentration and retention of information
- time to pain relief ([4]; 15 mg capsule of sibutramine, child): ≤ 45 min
- toe and function ([4]; 15 mg once a day, within 2 weeks): their toe became normal, and normal function was regained
- pain and symptoms after restart ([4]; back on 15 mg once a day): their pain level decreased significantly within one hour and their symptoms disappeared
- foot pain ([4]; first 15 mg capsule): dramatically better, completely relieved of pain
- symptoms off sibutramine ([4]; taken off for one day): all the previous symptoms reappeared
- ataxic gait with continued treatment (Huntington's Disease; gradually, continued sibutramine): improvements in their ataxic gait
- time to relief after the first capsule (Huntington's Disease; sibutramine 5 mg): ≤ 20 min
- cognitive, emotional, behavioral problems and ataxic gait (Huntington's Disease; sibutramine 5 mg three times a day, first capsule, person): complete relief of the cognitive, emotional, and behavioral problems but not with the ataxic gait
- effect on ADHD [5]: a calming and an alerting effect
- memory loss and severe confusion ([6]; sibutramine 15 mg once a day, person one): their symptoms quickly dissipated
- symptoms off sibutramine ([6]; taken off sibutramine): their symptoms reappeared
- sexual interest [7]: an increased interest in sex generally, but for the first time this interest included females as well as males
- time after which effects faded (Retinitis Pigmentosa; sibutramine 5 mgs.): 4 to 6 h
- visual apparitions (“visions”) (Retinitis Pigmentosa; sibutramine 5 mgs. t.i.d.): lost the “visions” which had upset them so
- organization, alertness, stammering, vision (Retinitis Pigmentosa; sibutramine 5 mgs. t.i.d. Person one): better organization and alertness, decreased stammering, but also better vision by visual testing
- speech, compulsive acts, social activity, sexual interest ([8]; sibutramine 5 mg tid): a decrease in repetitive speech, hissing, and compulsive acts, an increase in social activity and sexual interest, and increased speech generally
- violence / manageability ([8]; sibutramine 10 mg daily, person): again became calm and manageable
- concentration and fatigue problems (Sexual Function and ADD; sibutramine 5 mg three times daily with continuing valproic acid): no longer had the concentration and fatigue problems
- sexual interest and ability (Sexual Function and ADD; sibutramine 5 mg three times daily, person): immediately noted a new-found interest and ability to engage in sex
- concentration, organization, sexual obsessive-compulsive problems ([9]; sibutramine 10 mg every morning, then 5 mg three times a day by mouth, person): could concentrate, organize, and no longer had the sexual obsessive-compulsive problems
- duration of effects of each dose ([9]; sibutramine by mouth): about five
